How the values were obtained:
[1] = biological target: T1, human (His)6DGAT1 (Homo sapiens, UniProt O75907); assay: DGAT1 Inhibition Assay; type: biochemical; details: membrane preparation from Sf9 cells overexpressing human (His)6DGAT1; LC/MS/MS readout
T1 construct: made in house; host or cells: Sf9 insect cells (membrane preparation)
T1 sequence (O75907 1-488): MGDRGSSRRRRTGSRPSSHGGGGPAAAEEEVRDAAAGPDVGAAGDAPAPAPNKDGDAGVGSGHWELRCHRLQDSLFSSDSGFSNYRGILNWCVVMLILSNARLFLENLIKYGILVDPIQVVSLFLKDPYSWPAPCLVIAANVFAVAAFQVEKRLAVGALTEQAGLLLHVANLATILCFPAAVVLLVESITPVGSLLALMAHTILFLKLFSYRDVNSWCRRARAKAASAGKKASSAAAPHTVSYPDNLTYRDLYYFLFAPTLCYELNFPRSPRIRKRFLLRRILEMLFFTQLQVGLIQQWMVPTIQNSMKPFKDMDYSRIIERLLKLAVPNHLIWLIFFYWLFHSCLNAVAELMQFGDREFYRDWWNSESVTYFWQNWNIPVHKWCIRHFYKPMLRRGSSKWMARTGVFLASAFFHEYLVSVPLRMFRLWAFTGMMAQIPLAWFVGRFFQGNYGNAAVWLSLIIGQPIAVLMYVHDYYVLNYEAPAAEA
Method: The enzyme preparation used in this assay is a membrane preparation from Sf9 cells overexpressing human (His)6DGAT1. During all steps samples were chilled to 4° C. Sf9 cells expressing human (His)6DGAT1 were thawed at room temperature and re-suspended at a 10:1 ratio (mL buffer/g of cells) in 50 mM HEPES, 1× Complete Protease Inhibitor, pH 7.5. The re-suspended pellet was homogenized for 1 min using a Brinkman PT 10/35 homogenizer with a 20 mm generator. Cells were lysed using Avestin Emulsiflex (chilled to 4° C.) at 10000-15000 psi. Lysate was centrifuged at 100,000×g for 1 h at 4° C. Supernatant was removed and pellets were re-suspended in 50 mM HEPES, 1× Complete Protease Inhibitor, pH 7.5 at ⅙ the volume of supernatant. Re-suspended pellets were pooled and homogenized with 10 strokes of a Glas-Col motor driven teflon pestle on setting 70. The protein concentration of the membrane preparation was quantified using BCA protein assay with 1% SDS. The membrane preparation was aliquoted, frozen on dry ice, and stored at −80° C.
For 50 mL, 25 mL of 0.2 M HEPES stock buffer, 0.5 mL of 1 M MgCl2 ([…]), and 24.5 mL of milli-Q H2O are added to the 55 mL Wheaton Potter-Elvehjem homogenizer. Enzyme preparation (0.1 mL) is added to buffer and the mixture is homogenized with 5 strokes on ice using the Glas-Col variable speed homogenizer system on setting 70.
For 50 mL, 0.5 mL 10 mM diolein is added to 9.5 mL of EtOH in a 50 mL Falcon screw cap conical centrifuge tube. Five mL of 10 mM sodium acetate pH 4.5 is added followed by 0.5 mL of 10 mM oleoyl-CoA. Finally, the remaining 4.5 mL of 10 mM sodium acetate pH 4.5 is added followed by 30 mL of milli-Q H20. The solution should be gently agitated by hand to induce mixing. The final concentrations of EtOH and sodium acetate are 20% and 2 mM, respectively.
Dry compounds are dissolved in the appropriate volume of DMSO to a final concentration of 10 mM. […] All dilutions are performed in DMSO in a Greiner 384-well microplate. • 1. 2 μL of compound in DMSO is added to the appropriate wells. […] 25 μL of enzyme mix is added to all wells and plate(s) are incubated for 10 min at RT. • 3. […] Plate(s) are vortexed using Troemner multi-tube vortexer (setting 7 for 10 sec). • 4. 25 μL of substrate mix is added to all wells. Plate(s) are vortexed using Troemner multi-tube vortexer (setting 7 for 10 sec). Plate(s) are incubated for 30 min at RT. • 5. 10 μL of 20% acetic acid quench is added to all wells. Plate(s) are vortexed using Troemner multi-tube vortexer (setting 7 for 10 sec). • 6. 50 μL of 1-butanol w/ glyceryl tripalmitoleate internal standard is added to all wells. • 7. Plate(s) are sealed with super pierce strong plate sealer using the thermo-sealer. • 8. Plate(s) are vortexed using Troemner multi-tube vortexer (setting 10 for 5 min). • 9. Plate(s) are centrifuged at 162×g (1000 rpm for GH-3.8 rotor) for 5 min using Beckman GS-6R tabletop centrifuge.
Where indicated, tripalmitolein was used as an internal standard to control for instrument variation.
Column: Thermo Betabasic 4, 2.1×20 mm
Solvent: 10 mM Ammonium Formate, 0.1% Formic Acid, 2% water, 98% Methanol
Isocratic run 0.5 ml per minute
Data is converted to % inhibition prior to curve fitting using the following equation: […]

[2] = biological target: T2, DGAT1 in C2C12 cells (Mus musculus, UniProt Q9Z2A7); assay: Cellular assay to measure activity of DGAT1 inhibitors in mammalian cells (C2C12); type: cell-based; details: C2C12 mouse skeletal muscle cells, 250 μM oleate, 2 h, LC/MS readout
T2 construct: endogenous in cells; host or cells: C2C12 mouse skeletal muscle cells
T2 sequence (Q9Z2A7 1-498): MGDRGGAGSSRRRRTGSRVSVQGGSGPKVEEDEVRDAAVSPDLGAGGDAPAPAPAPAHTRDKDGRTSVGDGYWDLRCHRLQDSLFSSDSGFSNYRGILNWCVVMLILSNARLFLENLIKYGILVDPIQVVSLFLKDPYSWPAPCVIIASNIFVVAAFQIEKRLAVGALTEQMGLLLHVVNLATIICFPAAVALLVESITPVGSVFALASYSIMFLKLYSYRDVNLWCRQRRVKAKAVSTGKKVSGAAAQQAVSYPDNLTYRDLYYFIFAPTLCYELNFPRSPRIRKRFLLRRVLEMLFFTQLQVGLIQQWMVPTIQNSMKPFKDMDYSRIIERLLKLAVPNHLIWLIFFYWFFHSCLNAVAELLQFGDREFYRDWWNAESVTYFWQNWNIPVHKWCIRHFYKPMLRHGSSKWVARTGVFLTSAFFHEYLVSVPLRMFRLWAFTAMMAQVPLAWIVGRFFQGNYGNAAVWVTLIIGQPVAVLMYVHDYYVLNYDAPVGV
Method: C2C12 cells are an immortal mouse skeletal muscle cell line showing an 8-fold enrichment form DGAT1 versus DGAT2. C2C12 cells were routinely cultured in 150 cm2 flasks with DMEM (25 mM glucose) containing 10% FBS, 4 m M L-glutamine, 100 U/ml penicillin and 100 μg/ml streptomycin (30 ml per flask), at 37° C., 5% CO2 and 95% humidity. All studies were performed on cells at passage 10 or less.
C2C12 cells were seeded in 96-well plates in DMEM containing […] glucose and 10% FBS, 18 h (at 37° C.) prior to assay (all wells of the plate are used). […] Compounds were added at 1:3 dilution, 11 points and DMSO control, the starting concentration was usually 40 μM. Each point was dosed in quadruplicate allowing 2 compounds to be dosed per plate. The medium was removed at the end of the incubation and 200 μl/well of 1-butanol added. The 1-butanol contained an internal standard, tripalmitolein (2 μM). The plates were sealed with an adhesive plate sealer and left at room temperature for at least 30 min, then spun down at 209×g for 5 min.
Butanolic extracts were transferred to 384-well LC-MS plates (80 μl/well) and the plate heatsealed with a foil plate sealer. The 384-well plates containing sample were spun down at 209×g for 5 min prior to loading on the LC-MS.
Where indicated, tripalmitolein was used as an internal standard to control for instrument variation. HPLC conditions as above.

IC50 [1] [nM] | IC50 [2] [nM] | SMILES
120 | 16 | CC(C)(C)c1nnc(Nc2ccc(-c3ccc(C45CCC(CC(=O)O)(CC4)CO5)cc3)cc2)o1 [Example 20, 2-(1-(4′-((5-(tert-butyl)-1,3,4-oxadiazol-2-yl)amino)-[1,1′-biphenyl]-4-yl)-2-oxabicyclo[2.2.2]octan-4-yl)acetic acid]
360 | 944 | O=C(O)CC12CCC(c3ccc(-c4ccc(Nc5nnc(C6CCC6)o5)cn4)cc3)(CC1)OC2 [Example 21, (1-{4-[5-(5-cyclobutyl-[1,3,4]oxadiazol-2-ylamino)-pyridin-2-yl]-phenyl}-2-oxa-bicyclo[2.2.2]oct-4-yl)-acetic acid]
1700 | 296 | CC(C)(C)c1nnc(Nc2ccc(-c3ccc(C45CCC(CC(=O)O)(CC4)O5)cc3)cc2)o1 [Example 22, 2-(4-(4′-((5-(tert-butyl)-1,3,4-oxadiazol-2-yl)amino)-[1,1′-biphenyl]-4-yl)-7-oxabicyclo[2.2.1]heptan-1-yl)acetic acid]
84 | 267 | CC(C)(C)c1nnc(Nc2ccc(-c3ccc(C45CCC(CCC(=O)O)(CC4)O5)cc3)cc2)o1 [Example 23, 3-(4-(4′-((5-(tert-butyl)-1,3,4-oxadiazol-2-yl)amino)-[1,1′-biphenyl]-4-yl)-7-oxabicyclo[2.2.1]heptan-1-yl)propanoic acid]
